Measurements published in US20230074892A1, “BACTERIOPHAGE COMPOSITIONS AND USES THEREOF” (YALE UNIVERSITY, priority 2019, published 2023).

Tests used:
P. aeruginosa bacteria = assay: Pyocyanin level in culture supernatant after treatment; format: cell-based; conditions: for bacteria pyocyanin relative to untreated control: single treatment, culture supernatant
Experimental: Shown is bacteria pyocyanin relative to untreated control. […] When P. aeruginosa bacteria are exposed to treatments along x-axis, the supernatant of the culture is tested for pyocyanin level.

PA14 = assay: Pyocyanin production in bacterial cultures; format: cell-based, Pseudomonas aeruginosa; conditions: antibiotic alone
Excerpt: Deletion of type-IV pili is shown to attenuate virulence in P. aeruginosa, by impairing pyocyanin production, twitching motility, and biofilm formation (Persat et al. (2015) Proc. Natl. Acad. Sci. 112:7563-7568). Phage TIVP-H6 selects for phage resistance in P. aeruginosa via bacterial alteration or loss of type-IV pili.

Row | SMILES | bacteria pyocyanin relative to untreated control (P. aeruginosa bacteria) | effect of antibiotic on pyocyanin production (PA14) | killing of bacteria in the pyocyanin assay (P. aeruginosa bacteria)
1 | CC1(C)S[C@@H]2[C@H](NC(=O)C(C(=O)O)c3ccccc3)C(=O)N2[C@H]1C(=O)O (stereo partly drawn) [Carbenicillin] | do not reducte production | – | –
2 | O=C(O)c1cn(C2CC2)c2cc(N3CCNCC3)c(F)cc2c1=O [Ciprofloxacin] | do not reducte production | either increased or did not affect | –
3 | CC[C@H]1OC(=O)[C@H](C)[C@@H](O[C@H]2C[C@@](C)(OC)[C@@H](O)[C@H](C)O2)[C@H](C)[C@@H](O[C@@H]2O[C@H](C)C[C@H](N(C)C)[C@H]2O)[C@](C)(O)C[C@@H](C)C(=O)[C@H](C)[C@@H](O)[C@]1(C)O [Eythromycin] | causes reduced pyocyanin production | – | does not kill bacteria in this assay
4 | CCn1cc(C(=O)O)c(=O)c2ccc(C)nc21 [Nalidixic acid] | do not reducte production | – | –
